In patent publication US8378104B2 (OSI Pharmaceuticals, LLC, priority 2010, dated 2013):
Structures can show the parent of a compound that is named as a salt. Where two headings read alike, the source gives them in different places.

Experiments:
TAK1-TAB1 fusion protein = target: T1, TAK1-TAB1 fusion protein (Homo sapiens, UniProt O43318); assay: TAK1 biochemical assay (AlphaScreen, GST-MAP2K7 substrate)
T1 construct: purchased Carna
T1 sequence (O43318 with tags, fused parts or gaps limits assumed): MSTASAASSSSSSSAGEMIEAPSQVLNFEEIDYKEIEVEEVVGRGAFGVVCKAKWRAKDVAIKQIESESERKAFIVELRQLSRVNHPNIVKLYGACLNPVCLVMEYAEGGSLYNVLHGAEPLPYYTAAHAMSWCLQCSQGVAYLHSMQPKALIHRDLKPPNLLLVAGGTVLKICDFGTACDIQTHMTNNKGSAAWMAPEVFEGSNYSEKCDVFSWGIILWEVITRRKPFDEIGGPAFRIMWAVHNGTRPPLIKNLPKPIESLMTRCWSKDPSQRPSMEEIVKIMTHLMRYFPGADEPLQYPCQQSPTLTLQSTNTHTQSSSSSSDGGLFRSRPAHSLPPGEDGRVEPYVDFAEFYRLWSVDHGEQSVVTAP

pJNK in HCT-116 cells = assay: Phospho-JNK (Thr183/Tyr185) Meso Scale ELISA assay, TNFα-stimulated HCT-116 cells; type: cell-based; conditions: Homo sapiens, read-out: mean HCT-116 pJNK ELISA IC50 (Col. B)
Procedure, shortened: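 Meso Scale ELISA read of phospho-JNK (Thr183/Tyr185) in lysed HCT-116 cells. Cells were serum-reduced to 1% FCS for 2 hours, exposed to test drug for 4 hrs at 37° C, then given 10 ng/mL TNFα (final) for 10 minutes before lysis.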

p-p38 in HCT-116 cells = assay: Phospho-p38 Meso Scale ELISA assay, TNFα-stimulated HCT-116 cells; type: cell-based; conditions: Homo sapiens, read-out: mean HCT-116 p-p38 ELISA IC50 (Col. C)
Procedure, shortened: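 Phospho-p38 measured by Meso Scale ELISA on diluted lysates, captured overnight at 4° C. Before lysis, HCT-116 cells were serum-reduced (1% FCS, 2 h), treated with compounds 4 h at 37° C and stimulated 10 min with 10 ng/mL TNFα final.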

[1] = TAK1-TAB1 fusion protein, GST-MAP2K7 substrate, read-out: mean TAK1 IC50 (Col. A)

SMILES	IC50 (TAK1-TAB1 fusion protein; [1])	IC50 (pJNK in HCT-116 cells)	IC50 (p-p38 in HCT-116 cells)	IC50 (TAK1-TAB1 fusion protein)
CNc1ncc(-c2cnn([C@H]3CC[C@H](O)CC3)c2)c2cc(-c3csc4cnccc34)oc12 [Example 281, trans-4-{4-[7-(methylamino)-2-(thieno[2,3-c]pyridin-3-yl)furo[2,3-c]pyridin-4-yl]-1H-pyrazol-1-yl}cyclohexanol]	< 100 nM	< 100 nM	< 100 nM	
CC(=O)N1CCC(n2cc(-c3cnc(N)c4oc(-c5ccc6c(c5)C(=O)NC6)cc34)cn2)CC1 [Example 96, 6-{4-[1-(1-acetylpiperidin-4-yl)-1H-pyrazol-4-yl]-7-aminofuro[2,3-c]pyridin-2-yl}-2,3-dihydro-1H-isoindol-1-one]	100 to 1000 nM	1000 to 10000 nM	> 10000 nM	
Nc1ncc(-c2cnn(C[C@@H](O)CO)c2)c2cc(-c3csc4cnccc34)oc12 [Example 317, (R)-3-[4-(7-amino-2-thieno[2,3-c]pyridin-3-yl-furo[2,3-c]pyridin-4-yl)-pyrazol-1-yl]-propane-1,2-diol]	< 100 nM	1000 to 10000 nM	1000 to 10000 nM	
Nc1ncc(-c2cnn([C@H]3CC[C@H](O)CC3)c2)c2cc(-c3ccc4[nH]ncc4c3)oc12 [Example 402, trans-4-{4-[7-amino-2-(1H-indazol-5-yl)furo[2,3-c]pyridin-4-yl]-1H-pyrazol-1-yl}cyclohexanol]	100 to 1000 nM	100 to 1000 nM	1000 to 10000 nM	
CC1(C)OC[C@@H](Cn2cc(-c3cnc(N)c4oc(-c5csc6cnccc56)cc34)cn2)O1 [Example 297, 4-[1-((R)-2,2-dimethyl-[1,3]dioxolan-4-ylmethyl)-1H-pyrazol-4-yl]-2-thieno[2,3-c]pyridin-3-yl-furo[2,3-c]pyridin-7-ylamine]	100 to 1000 nM	100 to 1000 nM	1000 to 10000 nM	
Cc1nn(C)cc1-c1cnc(N)c2oc(-c3csc4cnccc34)cc12 [Example 293, 4-(1,3-dimethyl-1H-pyrazol-4-yl)-2-thieno[2,3-c]pyridin-3-yl-furo[2,3-c]pyridin-7-ylamine]		100 to 1000 nM	1000 to 10000 nM	1000 to 10000 nM
CC(=O)N1CCC(n2cc(-c3cnc(N)c4oc(-c5cccc6c5oc5ccccc56)cc34)cn2)CC1 [Example 93, 1-(4-{4-[7-amino-2-(dibenzo[b,d]furan-4-yl)furo[2,3-c]pyridin-4-yl]-1H-pyrazol-1-yl}piperidin-1-yl)ethanone]	> 10000 nM	1000 to 10000 nM	1000 to 10000 nM	
CC(=O)N1CCC(n2cc(-c3cnc(N)c4oc(-c5ccccc5CC#N)cc34)cn2)CC1 [Example 215, (2-{4-[1-(1-acetylpiperidin-4-yl)-1H-pyrazol-4-yl]-7-aminofuro[2,3-c]pyridin-2-yl}phenyl)acetonitrile]	100 to 1000 nM	100 to 1000 nM	100 to 1000 nM	
COCCN1CCC(n2cc(-c3cnc(N)c4oc(-c5cccc6cnccc56)cc34)cn2)CC1 [Example 68, 2-(isoquinolin-5-yl)-4-{1-[1-(2-methoxyethyl)piperidin-4-yl]-1H-pyrazol-4-yl}furo[2,3-c]pyridin-7-amine]	100 to 1000 nM	100 to 1000 nM	100 to 1000 nM	
Nc1ncc(-c2cnn([C@H]3CC[C@H](O)CC3)c2)c2cc(-c3cncc4cnsc34)oc12 [Example 267, trans-4-{4-[7-amino-2-([1,2]thiazolo[4,5-c]pyridin-7-yl)furo[2,3-c]pyridin-4-yl]-1H-pyrazol-1-yl}cyclohexanol Diformate Salt]	100 to 1000 nM	< 100 nM	100 to 1000 nM	
CC(=O)N1CCC(n2cc(-c3cnc(N)c4oc(-c5ccc6nn(C)cc6c5)cc34)cn2)CC1 [Example 145, 1-(4-{4-[7-amino-2-(2-methyl-2H-indazol-5-yl)furo[2,3-c]pyridin-4-yl]-1H-pyrazol-1-yl}piperidin-1-yl)ethanone]	> 10000 nM	1000 to 10000 nM	1000 to 10000 nM	
CC(C)n1cc(-c2cnc(N)c3oc(-c4c[nH]c5cnccc45)cc23)cn1 [Example 90, 4-[1-(propan-2-yl)-1H-pyrazol-4-yl]-2-(1H-pyrrolo[2,3-c]pyridin-3-yl)furo[2,3-c]pyridin-7-amine]	< 100 nM	100 to 1000 nM	< 100 nM	
